Test results reported in patent publication US10414759B2, “Phenylthiazoles and uses thereof” (Purdue Research Foundation, priority 2017, dated 2019).
≈ marks a conversion by molar mass, not a printed value.

Key:
MRSA (2658 RCMB) = assay: MIC against MRSA (2658 RCMB), broth dilution; type: cell-based, Staphylococcus aureus
Outline: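 Broth dilution in cation-adjusted Mueller-Hinton broth with an inoculum of about 5×10^5 CFU/mL (from a 0.5 McFarland suspension), using triplicate serial dilutions. MIC was the lowest concentration with no visible growth by visual inspection, reported as the mean of triplicates.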

VRSA10 = assay: MIC/MBC clinical isolate panel (Table 3); type: cell-based, S. aureus; details: Staphylococcus aureus, Table 3, VRSA10
Description: MRSA clinical isolates, and vancomycin-resistant Staphylococcus aureus (VRSA) strain were obtained through the Network of Antimicrobial Resistance in Staphylococcus aureus (NARSA) program. In addition, vancomycin-resistant Enterococcus faecium (VRE) strain was obtained from the ATCC. Bacteria were cultured in cation-adjusted Mueller Hinton broth in a 96-well plate. Compounds, using triplicate samples, were added to the plate and serially diluted. […] Plates were visually inspected and the MIC was categorized as the concentration at which no visible growth of bacteria was observed. The average of triplicate MIC determinations is reported.
The minimum inhibitory concentration (MIC) of tested compounds and control antibiotics were determined using the broth microdilution method in accordance with the recommendations contained in the Clinical and Laboratory Standards Institute guidelines, against methicillin-sensitive (ATCC 6538 and NRS107), methicillin-resistant (MRSA), and vancomycin-resistant (VRSA) Staphylococcus aureus, Staphylococcus epidermidis, Enterococcus faecalis, E. faecium, Listeria monocytogenes, and Streptococcus pneumoniae clinical isolates. A bacterial solution equivalent to 0.5 McFarland standard was prepared and diluted in cation-adjusted Mueller-Hinton broth (CAMHB) to achieve a bacterial concentration of about 5×10^5 CFU/mL and seeded in 96-well plates. Enterococcus faecium was diluted in brain heart infusion broth. Enterococcus faecalis, Streptococcus pneumonia and Listeria monocytogenes were diluted in tryptone soya broth (TSB). Compounds and control drugs were added in the first row of 96-well plates and serially diluted (to achieve a concentration gradient ranging from 128 to 1 μg/mL). Plates were then incubated aerobically at 37° C. for at least 18 hours. The minimum bactericidal concentration (MBC) of the active compounds was tested by plating 5 μL from wells with no growth onto Tryptic soy agar (TSA) plates.

[1] = test system: human keratinocytes (HaCaT); assay: In vitro cytotoxicity against HaCaT (MTS); type: cell-based; details: 2 h incubation
Description: Compound 17 was assayed at concentrations of 8, 16, 32, 64, 128, and 256 μg/mL against an immortal keratinocyte cell line (HaCaT) in order to determine the potential toxic effect against mammalian cells in vitro. Cells were cultured in Dulbeco's modified Eagle's medium (Sigma-Aldrich, St. Louis, Mo., USA) with 10% fetal bovine serum (USA Scientific, Inc.) at 37° C. with 5% CO2. Controls received DMSO alone at a concentration equal to that in drug-treated cell samples. The cells were incubated with the compounds in a 96-well plate at 37° C. and 5.0% CO2 for 2 h prior to addition of the assay reagent MTS 3-(4,5-dimethylthiazol-2-yl)-5-(3-carboxymethoxyphenyl)-2-(4-sulfophenyl)-2H-tetrazolium) (Promega, Madison, Wis., USA). Corrected absorbance readings (actual absorbance readings for each treatment […]) were taken using a kinetic ELISA microplate reader (Molecular Devices, Sunnyvale, Calif., USA). The quantity of viable cells after treatment with each compound is expressed as a percentage of the control, DMSO.

MRSA (USA300) = assay: Time-kill assay; type: cell-based, Staphylococcus aureus; details: MRSA US300, 3.0×MIC
Description: Aliquots (100 μL) were taken from each sample after 2, 4, 6, 8, 10, 12, and 24 hours, serially diluted in phosphate-buffered saline, and transferred to Trypticase soy agar (TSA) (Becton, Dickinson and Company, Sparks, Md., USA) plates. Plates were incubated at 37° C. for at least 16 hours before counting viable CFU/mL to determine the time required to reduce the bacterial cell count by 3-log10.

improvement in MIC value compared with lead compound 1 (MRSA (2658 RCMB); MRSA (2658 RCMB)): 12 fold
MIC (MRSA (2658 RCMB); Staphylococcus aureus, Table 1, MRSA (2658 RCMB), read-out: MIC ± SD): 0.4 µg/mL (≈ 1.18 µM)
MIC ± SD (MRSA (2658 RCMB); Table 1, MRSA (2658 RCMB)): 0.40 ± 0.0 µg/mL (≈ 1.18 µM)
MIC (VRSA10; read-out: MIC): 1 µg/mL (≈ 2.95 µM)
SMILES: CCCCc1ccc(-c2nc(C)c(-c3ccnc(NN)n3)s2)cc1 [Compound 17, 2-(4-Butylphenyl)-5-(2-hydrazinopyrimidin-4-yl)-4-methylthiazole]
antibacterial (anti-MRSA) activity, in words (MRSA (2658 RCMB); Table 1): more potent than vancomycin
MBC (VRSA10; read-out: MBC): 2 µg/mL (≈ 5.89 µM)
nontoxic up to a concentration of [1]: 64 µg/mL
time required to reduce the MRSA inoculum to zero colony forming units (MRSA (USA300)): ≤ 2 h
